Measurements taken from ChEMBL document CHEMBL1157815, “Antiproliferative activity of withanolides against human breast cancer cell lines” (2010).

Legend:
Assay type in all cases: functional
T47D = experiment: Antiproliferative activity against human T47D cells expressing estrogen receptor after 48 hrs by SRB assay
[1] = Antiproliferative activity against human MCF7/BUS cells expressing estrogen receptor after 48 hrs by SRB assay
MDA-MB-231 = experiment: Antiproliferative activity against estrogen receptor deficient human MDA-MB-231 cells after 48 hrs by SRB assay; details: MDA-MB-231, 48 h
SK-BR-3 = experiment: Antiproliferative activity against estrogen receptor deficient human SKBR3 cells after 48 hrs by SRB assay; details: SK-BR-3, 48 h
MCF7 = experiment: Antiproliferative activity against human MCF7 cells expressing estrogen receptor after 48 hrs by SRB assay; details: MCF7, 48 h

## CC1=C(C)[C@H]([C@H]2O[C@@]3(O)C[C@H]4[C@@H](C[C@H]5O[C@]56CC=CC(=O)[C@]46C)[C@@H]4CC[C@@](O)([C@@H]2C)[C@]43C)OC1=O [TRECHONOLIDE A]
T47D
  GI50: 4.3 µM
[1]
  GI50: 3.1 µM
MDA-MB-231
  GI50: 6.3 µM
SK-BR-3
  GI50: 1.9 µM
MCF7
  GI50: 3.9 µM

## CCO[C@@]12C[C@H]3[C@@H](C[C@@H](O)[C@@]4(Cl)CC=CC(=O)[C@]34C)[C@@H]3CC[C@@](O)([C@H](C)[C@@H]([C@@H]4OC(=O)C(C)=C4C)O1)[C@]32C [12-O-ETHYLJABOROSALACTONE 42]
T47D
  GI50: 3.9 µM
[1]
  GI50: 3 µM
MDA-MB-231
  GI50: 3.7 µM
SK-BR-3
  GI50: 2.5 µM
MCF7
  GI50: 3 µM

## CC1=C(C)[C@]2(OC1=O)[C@H](O)[C@@H](C)[C@]1(O)CC[C@H]3[C@@H]4CC=C5CC=CC(=O)[C@]5(C)[C@H]4C[C@@]2(O)[C@@]31C [JABOROSALACTONE P]
T47D
  GI50: 61 µM
[1]
  GI50: 33 µM
MDA-MB-231
  GI50: 49 µM
SK-BR-3
  GI50: 29 µM
MCF7
  GI50: 35 µM

## CO[C@@]12C[C@@H]3c4c(O)cccc4[C@H](O)C[C@H]3[C@@H]3CC[C@@](O)([C@H](C)[C@@H]([C@@H]4OC(=O)C(C)=C4C)O1)[C@]32C
T47D
  GI50: > 100 µM
[1]
  GI50: > 100 µM
MDA-MB-231
  GI50: > 100 µM
SK-BR-3
  GI50: > 100 µM
MCF7
  GI50: > 100 µM

## CC1=C(C)[C@]2(OC1=O)C(=O)C(C)=C1CC[C@H]3[C@@H]4C[C@H]5O[C@]56CC=CC(=O)[C@]6(C)[C@H]4C[C@@]2(O)[C@]13C [JABOROSALACTONE 1]
T47D
  GI50: 3.4 µM
[1]
  GI50: 3.3 µM
MDA-MB-231
  GI50: 2.5 µM
SK-BR-3
  GI50: 2 µM
MCF7
  GI50: 3.2 µM

## C[C@]12CC[C@H]3C(=C1[C@H]1C[C@@]2(O)[C@](C)([C@H]2C[C@]4(C)O[C@]4(C)[C@H](O)O2)C1)C[C@@H](O)[C@@]1(O)CC=CC(=O)[C@]31C [JABOROSALACTOL20]
T47D
  GI50: > 100 µM
[1]
  GI50: > 100 µM
MDA-MB-231
  GI50: > 100 µM
SK-BR-3
  GI50: > 100 µM
MCF7
  GI50: > 100 µM

## CC1=C(C)C(=O)O[C@@H]([C@](C)(O)[C@]2(O)CC[C@@]3(O)[C@@H]4C[C@H]5O[C@]56CC=CC(=O)[C@]6(C)[C@H]4CC[C@]23C)C1 [WITHANOLIDE E]
T47D
  GI50: 0.16 µM
[1]
  GI50: 0.42 µM
MDA-MB-231
  GI50: 0.24 µM
SK-BR-3
  GI50: 0.71 µM
MCF7
  GI50: 0.31 µM

## CCO[C@@]12C[C@H]3[C@@H](C[C@@H](O)[C@@]4(Cl)CC=CC(=O)[C@]34C)[C@@H]3CC[C@@](O)([C@H](C)[C@@H]([C@@H]4O[C@H](O)[C@@]5(C)O[C@@]45C)O1)[C@]32C
T47D
  GI50: 13 µM
[1]
  GI50: 5.1 µM
MDA-MB-231
  GI50: 10 µM
SK-BR-3
  GI50: 3.4 µM
MCF7
  GI50: 3.9 µM

## CC1=C(C)[C@H]([C@H]2O[C@@]3(O)C[C@H]4[C@@H](C[C@@H](O)[C@@]5(Cl)CC=CC(=O)[C@]45C)[C@@H]4CC[C@@](O)([C@@H]2C)[C@]43C)OC1=O [JABOROSALACTONE 42]
T47D
  GI50: 3.5 µM
[1]
  GI50: 2.6 µM
MDA-MB-231
  GI50: 3.2 µM
SK-BR-3
  GI50: 2.5 µM
MCF7
  GI50: 2.4 µM

## C[C@@H]1[C@@H]([C@@H]2O[C@H](O)[C@@]3(C)O[C@@]23C)O[C@@]2(O)C[C@H]3[C@@H](CC=C4CC=CC(=O)[C@@]43C)[C@@H]3CC[C@]1(O)[C@]32C [JABOROSALACTOL]
T47D
  GI50: 30 µM
[1]
  GI50: 18 µM
MDA-MB-231
  GI50: 19 µM
SK-BR-3
  GI50: 18 µM
MCF7
  GI50: 14 µM

## CC1=C(C)C(=O)O[C@@H]([C@H]2CO[C@@]3(O)C[C@H]4[C@@H](C[C@H]5O[C@]56CCCC(=O)[C@]46C)[C@@H]4CC[C@]2(O)[C@]43C)C1 [JABOROSALACTONE 39]
T47D
  GI50: 38 µM
[1]
  GI50: 29 µM
MDA-MB-231
  GI50: 35 µM
SK-BR-3
  GI50: 34 µM
MCF7
  GI50: 25 µM

## CC1=C(C)C(=O)O[C@@H]([C@H]2CO[C@@]3(O)C[C@H]4[C@@H](C[C@H]5O[C@]56CC=CC(=O)[C@]46C)[C@@H]4CC[C@]2(O)[C@]43C)C1 [JABOROSALACTONE]
T47D
  GI50: 4.1 µM
[1]
  GI50: 2.8 µM
MDA-MB-231
  GI50: 3.4 µM
SK-BR-3
  GI50: 2.6 µM
MCF7
  GI50: 2.9 µM

## CC1=C(C)C(=O)O[C@@H]([C@](C)(O)[C@]2(O)CC[C@@]3(O)[C@@H]4C[C@H]5O[C@]56[C@@H](O)C=CC(=O)[C@]6(C)[C@H]4CC[C@]23C)C1
T47D
  GI50: 2.2 µM
[1]
  GI50: 1.1 µM
MDA-MB-231
  GI50: 2.1 µM
SK-BR-3
  GI50: 1.7 µM
MCF7
  GI50: 1 µM

## CO[C@@]12C[C@H]3[C@@H](C[C@H]4O[C@]45CC=CC(=O)[C@]35C)[C@@H]3CC[C@@](O)([C@@H]([C@H]4CC(C)=C(C)C(=O)O4)CO1)[C@]32C [12-O-METHYLJABOROSALACTONE 38]
T47D
  GI50: 3.9 µM
[1]
  GI50: 2.7 µM
MDA-MB-231
  GI50: 2.8 µM
SK-BR-3
  GI50: 2 µM
MCF7
  GI50: 2.9 µM

## O=c1[nH]cc(F)c(=O)[nH]1 [FLUOROURACIL]
T47D
  GI50: 47 µM
[1]
  GI50: 6.2 µM
MDA-MB-231
  GI50: 54 µM
SK-BR-3
  GI50: 3 µM
MCF7
  GI50: 8.3 µM

## C[C@@H](c1cc(O)c2c(c1)CC[C@H]1[C@H]2C[C@@H]2O[C@@]23CC=CC(=O)[C@]13C)[C@@H]1C[C@@H]2O[C@@H]2[C@H](O)O1 [SALPICHROLIDE G]
T47D
  GI50: 14 µM
[1]
  GI50: 5.7 µM
MDA-MB-231
  GI50: 14 µM
SK-BR-3
  GI50: 3.4 µM
MCF7
  GI50: 5.1 µM

## C[C@@H]1[C@@H]([C@@H]2O[C@H](O)[C@@]3(C)O[C@@]23C)O[C@@]2(O)C[C@H]3[C@@H](C[C@H]4O[C@]45CC=CC(=O)[C@]35C)[C@@H]3CC[C@]1(O)[C@]32C [JABOROSALACTOL 24]
T47D
  GI50: 6.5 µM
[1]
  GI50: 2.6 µM
MDA-MB-231
  GI50: 8.7 µM
SK-BR-3
  GI50: 2.3 µM
MCF7
  GI50: 3.6 µM

## CC1=C(C)C(=O)O[C@]2(C1)O[C@@]1(O)C[C@H]3[C@@H](C[C@H]4O[C@]45CC=CC(=O)[C@]35C)[C@@H]3CC[C@@](O)([C@@H]2C)[C@]31C [JABOROSALACTONE 46]
T47D
  GI50: 3.7 µM
[1]
  GI50: 2.9 µM
MDA-MB-231
  GI50: 3.5 µM
SK-BR-3
  GI50: 2.5 µM
MCF7
  GI50: 2.8 µM

## CC1=C(C)[C@H]([C@H]2O[C@@]3(O)C[C@@H]4c5c(O)cccc5[C@H](O)C[C@H]4[C@@H]4CC[C@@](O)([C@@H]2C)[C@]43C)OC1=O [JABOROSALACTONE 45]
T47D
  GI50: > 100 µM
[1]
  GI50: > 100 µM
MDA-MB-231
  GI50: > 100 µM
SK-BR-3
  GI50: > 100 µM
MCF7
  GI50: > 100 µM

## CC1=C(C)[C@H]([C@H]2O[C@@]3(O)C[C@H]4[C@@H](C[C@@H](O)[C@@]5(O)CC=CC(=O)[C@]45C)[C@@H]4CC[C@@](O)([C@@H]2C)[C@]43C)OC1=O [JABOROTETROL]
T47D
  GI50: > 100 µM
[1]
  GI50: > 100 µM
MDA-MB-231
  GI50: > 100 µM
SK-BR-3
  GI50: > 100 µM
MCF7
  GI50: > 100 µM

## CC[C@@]1(O)C(=O)OCc2c1cc1n(c2=O)Cc2cc3ccccc3nc2-1 [CAMPTOTHECIN]
T47D
  GI50: 2 µM
[1]
  GI50: 0.21 µM
MDA-MB-231
  GI50: 1.3 µM
SK-BR-3
  GI50: 0.15 µM
MCF7
  GI50: 0.28 µM

## C[C@@H](C1=CC(=O)[C@H]2[C@@H]3C[C@H]4O[C@]45CC=CC(=O)[C@]5(C)[C@H]3CC[C@]12C)C1C[C@]2(C)O[C@]2(C)[C@H](O)O1 (stereo not given in full) [SALPICHROLIDE D]
T47D
  GI50: 17 µM
[1]
  GI50: 13 µM
MDA-MB-231
  GI50: 21 µM
SK-BR-3
  GI50: 21 µM
MCF7
  GI50: 22 µM
